{
  "source": "patent US12318393B2",
  "about": "“Modulators of orphan nuclear receptors for NASH and other metabolic disorders” (Emory University, priority 2018, dated 2025)",
  "tested_on": "high-fat-fed C57BL/6 mice",
  "test": "High-fat-diet C57BL/6 mice, Compound 1 7.5 mg/kg with antagomiR-control or antagomiR-122",
  "assay_type": "in vivo",
  "protocol": "C57BL/6 mice were fed a 50% high fat diet (HFD) for four weeks. The control cohort received three hydrodynamic tail vein injections of a 5 μg antagomiR-control and six i.p injections of saline over three weeks. A second cohort was hydrodynamic tail vein injected with 5 μg antagomiR-122 (the reverse complement that inhibits activity of miR-122) three times and i.p injections of saline six times over three weeks. A third cohort was injected i.p. with Compound 1 (7.5 mg/kg) twice a week plus antagomiR-control once a week over the course of 3 weeks. The final cohort was injected i.p. with Compound 1 (7.5 mg/kg) twice a week plus antagomiR-122 injections once a week over the course of 3 weeks.\nHigh Fat diet fed mice. C57BL/6 male mice were fed for 8 weeks a 50% high fat diet (Envigo, DIETTD150235). All mice were kept in a pathogen-free facility, under a 12 h light/dark cycle. Research on mice was approved by the Hebrew University Institutional Animal Care and Ethics Committee.\nCompound 1 and AntagomiR injections to mice. C57BL/6 male mice, 7-8 weeks old, or Sgp130FC, 9-month-old male mice, were injected i.p. with 7.5 mg/kg Compound 1 dissolved in saline and 3% DMSO. Saline was injected as control. Mice were hydrodynamic tail vain injected with antagomiR-122 or antagomiR-control (negative control) (5 μg/mouse in 1.5 ml saline). Mice were sacrificed according to the legend of the figure describing the experimental results and the livers, white adipose and skeletal muscle tissues were frozen in liquid nitrogen or in OCT embedded frozen blocks, for further RNA and histologic analysis. AntagomiRs were obtained from Sigma Aldrich, see Table 3.\nTriglycerides and β-hydroxybutyrate quantification. To determine the liver and muscle lipid content, muscle and liver tissues (40-80 mg) were homogenized in 0.5 ml of chloroform: Tris solution (v/v, 1:1), the homogenate was transferred to 1 ml of chloroform: methanol solution (v/v, 2:1) centrifuged at 3000 rpm for 10 min. The organic phase was mixed with 5% Triton X100 in chloroform, dried and re-dissolved in water. After lipid extraction, TG concentration in samples was measured with Triglyceride Quantification Kit (BioVision), according to the manufactures instructions. β-hydroxybutyrate was determined utilizing commercial colorimetric kits (BioVision) directly from plasma samples.\nIn an effort to determine whether the mechanism of action of miR-122 and Compound 1 are aligned at the same pathway, an experiment was designed in which both molecules, together and each separately, were administered. In this study, mice were fed with a 50% HFD and therapy was initiated 4 weeks after the animals were already on a diet, to establish NASH prior to treatment. Therapies (antagomiRs given once a week, due to a prolonged half time, and RS twice weekly, due to a plasma t/2 of 2.7 hrs) were initiated after 4 weeks and given for 3 weeks. The mice were weighed from week 3 and therapies initiated a week later. […] The liver was further analyzed to assess lipotoxicity. […] A surrogate marker for energy expenditure, β-hydroxybutyrate, was also measured. A reduction in energy expenditure is associated with reduced miR-122, and energy expenditure increased upon treating with Compound 1.\nMale C57BL/6J mice, 7 to 8 weeks old, were housed randomly in standard cages and were fed a HFD, or atherogenic diet (consisting 1% Chol and 0.5% cholic acid, see also Table 3). All mice had free access to water during the experimental period. During the feeding period body weight was monitored every 3 days. In the HFD experiment, after 4 or 6 weeks, the resultant obese mice were treated with antagomiR-122 ([…] once a week for 3 weeks), or i.p. injected with Compound 1 (RORα agonist, 7.5 mg/kg twice a week for 3 weeks; or 15 mg/kg 3 times a week for 3 weeks). The obese control (HFD) group was administered only saline with DMSO and antagomiR-control. […]",
  "data": [
    {"substance": "antagomiR-122: small synthetic RNA, 2'-O-Me/phosphorothioate modified, cholesterol-linked, reverse complement that inhibits activity of miR-122 (antisense ACAAACACCAUUGUCACAC; 2'-O-methyl, phosphorothioate, cholesterol-linked, pattern not given here) [reference compound]", "values": [
      {"measurement": "final body weight", "setting": "5 μg antagomiR hydrodynamic tail vein injection three times over three weeks, HFD", "result": 32, "unit": "g"},
      {"measurement": "TG content in the muscle", "setting": "50% HFD, treatment for 3 weeks", "result": "increased"}
    ]}
  ]
}
